Data as given in patent US8487108B2, “Piperidinyl carbamate intermediates for the synthesis of aspartic protease inhibitors” (Vitae Pharmaceuticals, Inc., priority 2005, dated 2013).

Molecular target: T1, trypsin-activated recombinant human renin (Homo sapiens, UniProt P00797)
T1 sequence (P00797 67-406): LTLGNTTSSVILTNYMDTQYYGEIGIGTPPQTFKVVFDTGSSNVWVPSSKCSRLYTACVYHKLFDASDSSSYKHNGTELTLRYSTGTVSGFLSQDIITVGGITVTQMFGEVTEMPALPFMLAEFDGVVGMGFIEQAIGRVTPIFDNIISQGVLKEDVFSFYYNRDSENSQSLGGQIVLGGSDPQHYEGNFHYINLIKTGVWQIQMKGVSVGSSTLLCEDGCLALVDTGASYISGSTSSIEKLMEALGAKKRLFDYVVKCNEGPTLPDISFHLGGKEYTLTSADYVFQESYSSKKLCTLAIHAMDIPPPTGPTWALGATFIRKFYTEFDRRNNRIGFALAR
Experiment: Renin fluorescence assay (internally quenched peptide substrate)
Type: biochemical
Conditions: compounds I*
Summary of the method: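 Cleavage of an angiotensinogen-derived DABCYL-quenched peptide by trypsin-activated recombinant human renin (0.2-2 nM final) in 50 mM BES, 150 mM NaCl, 0.25 mg/mL BSA, pH 7.0; compounds 10 μM to 1 nM final. Fluorescence (ex 340/em 495 nm) followed 60-360 min at rt; linear-slope rates give percent inhibition versus uninhibited control.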

IC50 [nM] | SMILES
< 10 | CNC[C@H](C[C@H]1CCC2(CC2)OC1)NC(=O)N1CCC[C@@H]([C@@H](OCCNC(=O)OC)c2cccc(Cl)c2)C1 [I*-158a, methyl 2-((R)-(3-chlorophenyl)((R)-1-((S)-1-((R)-4-oxaspiro[2.5]octan-6-yl)-3-(methylamino)propan-2-ylcarbamoyl)piperidin-3-yl)methoxy)ethylcarbamate]
< 20 | CCNC(=O)CO[C@@H](c1cccc(Cl)c1)[C@@H]1CCCN(C(=O)N[C@H](CNC)C[C@H]2CCCOC2)C1 [I*-30a, (R)-3-((R)-(3-chlorophenyl)(2-(ethylamino)-2-oxoethoxy)methyl)-N—((S)-1-(methylamino)-3-((R)-tetrahydro-2H-pyran-3-yl)propan-2-yl)piperidine-1-carboxamide]
< 1 | CNC[C@H](CC1CCCCCC1)NC(=O)N1CCC[C@@H]([C@@H](OCCNC(=O)OC)c2cccc(F)c2)C1 [I*-39a, methyl 2-((R)-((R)-1-((S)-1-cycloheptyl-3-(methylamino)propan-2-ylcarbamoyl)piperidin-3-yl)(3-fluorophenyl)methoxy)ethylcarbamate]
< 1 | CNC[C@H](CC1CCCCC1)NC(=O)N1CCC[C@@H]([C@@H](OCCNC(=O)OC)c2ccc(F)c(Cl)c2)C1 [I*-118a, methyl 2-((R)-(3-chloro-4-fluorophenyl)((R)-1-((S)-1-cyclohexyl-3-(methylamino)propan-2-ylcarbamoyl)piperidin-3-yl)methoxy)ethylcarbamate]
< 10 | CNC[C@H](CC1CCCCC1)NC(=O)N1CCC[C@@H](C(OCCNC(=O)OC)c2cc(Cl)ccc2F)C1 (stereo partly drawn) [I*-116a, methyl 2-((5-chloro-2-fluorophenyl)((R)-1-((S)-1-cyclohexyl-3-(methylamino)propan-2-ylcarbamoyl)piperidin-3-yl)methoxy)ethylcarbamate]
< 10 | CNC[C@H](CC1CCCCC1)NC(=O)N1CCC[C@@H]([C@@H](OCCNC(=O)OC)c2nc(C)cs2)C1 [I*-32a, methyl 2-((R)-((R)-1-((S)-1-cyclohexyl-3-(methylamino)propan-2-ylcarbamoyl)piperidin-3-yl)(4-methylthiazol-2-yl)methoxy)ethylcarbamate]
> 50 | CNC[C@H](CC1CCCCC1)NC(=O)N1CCCC[C@@H]([C@H](OCCNC(=O)OC)c2cccc(Cl)c2)C1 [I*-92a, methyl 2-((S)-(3-chlorophenyl)((R)-1-((S)-1-cyclohexyl-3-(methylamino)propan-2-ylcarbamoyl)azepan-3-yl)methoxy)ethylcarbamate]
< 20 | COCC(C)(C)C[C@H](N)CNC(=O)N1CCC[C@@H]([C@@H](OCCNC(=O)OC)c2cccc(Cl)c2)C1 [I*-35a, methyl 2-((R)—((R)-1-((S)-2-amino-5-methoxy-4,4-dimethylpentylcarbamoyl)piperidin-3-yl)(3-chlorophenyl)methoxy)ethylcarbamate]
< 10 | CNC[C@H](CC12CC3CC(CC1C3)C2)NC(=O)N1CCC[C@@H]([C@@H](OCCNC(=O)OC)c2cc(F)ccc2F)C1 [I*-149a, methyl 2-((R)-((R)-1-((S)-1-(3-noradamantyl)-3-(methylamino)propan-2-ylcarbamoyl)piperidin-3-yl)(2,5-difluorophenyl)methoxy)ethylcarbamate]
> 50 | COCC(C)(C)C[C@H](N)CNC(=O)N1CCC[C@@H]([C@@H](OCCNC(=O)OC)c2cccc(F)c2)C1 [I*-14a, methyl 2-((R)—((R)-1-((S)-2-amino-5-methoxy-4,4-dimethylpentylcarbamoyl)piperidin-3-yl)(3-fluorophenyl)methoxy)ethylcarbamate]
> 50 | CNC[C@H](CC1CCOCC1)NC(=O)N1CCO[C@@H]([C@@H](OCCNC(=O)OC)c2cccc(Cl)c2)C1 [I*-75a, methyl 2-((S)-(3-chlorophenyl)((R)-4-((S)-1-(methylamino)-3-(tetrahydro-2H-pyran-4-yl)propan-2-ylcarbamoyl)morpholin-2-yl)methoxy)ethylcarbamate]
< 10 | CNC[C@H](CC1CCCCC1)NC(=O)N1CCC[C@@H]([C@@H](OCCNC(=O)OC)c2cc(F)c(F)c(F)c2)C1 [I*-119a, methyl 2-((R)-((R)-1-((S)-1-cyclohexyl-3-(methylamino)propan-2-ylcarbamoyl)piperidin-3-yl)(3,4,5-trifluorophenyl)methoxy)ethylcarbamate]
< 1 | CNC[C@H](C[C@H]1CCCCOC1)NC(=O)N1CCC[C@@H]([C@@H](OCCNC(=O)OC)c2cccc(F)c2)C1 [I*-55a, methyl 2-((R)-(3-fluorophenyl)((R)-1-((S)-1-(methylamino)-3-((R)-oxepan-3-yl)propan-2-ylcarbamoyl)piperidin-3-yl)methoxy)ethylcarbamate]
< 10 | CNC[C@H](C[C@H]1CCC2(CC2)OC1)NC(=O)N1CCC[C@@H]([C@@H](OCCNC(=O)OC)c2cccc(F)c2)C1 [I*-159a, methyl 2-((R)-(3-fluorophenyl)((R)-1-((S)-1-((R)-4-oxaspiro[2.5]octan-6-yl)-3-(methylamino)propan-2-ylcarbamoyl)piperidin-3-yl)methoxy)ethylcarbamate]
< 10 | CNC[C@H](CC1CCCOCC1)NC(=O)N1CCC[C@@H]([C@@H](OCCNC(=O)OC)c2cccc(Cl)c2F)C1 (stereo partly drawn) [I*-137a, methyl 2-((R)-(3-chloro-2-fluorophenyl)((3R)-1-((S)-1-(methylamino)-3-(oxepan-4-yl)propan-2-ylcarbamoyl)piperidin-3-yl)methoxy)ethylcarbamate]
< 1 | CNC[C@H](CC12CC3CC(CC1C3)C2)NC(=O)N1CCC[C@@H]([C@@](C)(OCCNC(=O)OC)c2cccc(Cl)c2)C1 [I*-151a, methyl 2-((R)-1-(3-chlorophenyl)-1-((3R)-1-((S)-1-(3-noradamantyl)-3-(methylamino)propan-2-ylcarbamoyl)piperidin-3-yl)ethoxy)ethylcarbamate]
< 10 | CNC[C@H](CC1CCOCC1)NC(=O)N1CCC[C@@H]([C@@H](OCCNC(=O)OC)c2cc(Cl)ccc2C)C1 [I*-101a, methyl 2-((R)-(5-chloro-2-methylphenyl)((R)-1-((S)-1-(methylamino)-3-(tetrahydro-2H-pyran-4-yl)propan-2-ylcarbamoyl)piperidin-3-yl)methoxy)ethylcarbamate]
< 10 | CNC[C@H](CC12CC3CC(CC1C3)C2)NC(=O)N1CCC[C@@H]([C@@H](OCCNC(=O)OC)c2cccc(F)c2)C1 [I*-123a, methyl 2-((R)-((3R)-1-((S)-1-(3-noradamantyl)-3-(methylamino)propan-2-ylcarbamoyl)piperidin-3-yl)(3-fluorophenyl)methoxy)ethylcarbamate]
< 1 | CNC[C@H](CC1CCCCC1)NC(=O)N1CCC[C@@H]([C@@H](OCCNC(=O)OC)c2cc(F)ccc2C)C1 [I*-40a, methyl 2-((R)-((R)-1-((S)-1-cyclohexyl-3-(methylamino)propan-2-ylcarbamoyl)piperidin-3-yl)(5-fluoro-2-methylphenyl)methoxy)ethylcarbamate]
< 1 | CNC[C@H](CC1CCC(F)(F)CC1)NC(=O)N1CCC[C@@H]([C@@H](OCCNC(=O)OC)c2cc(F)cc(Cl)c2)C1 [I*-153a, methyl 2-((R)-(3-chloro-5-fluorophenyl)((R)-1-((S)-1-(4,4-difluorocyclohexyl)-3-(methylamino)propan-2-ylcarbamoyl)piperidin-3-yl)methoxy)ethylcarbamate]
< 10 | CNC[C@H](C[C@H]1CCCCOC1)NC(=O)N1CCC[C@@H]([C@@H](OCCNC(=O)OC)c2ccccc2F)C1 [I*-57a, methyl 2-((1R)-(2-fluorophenyl)((3R)-1-(1-(methylamino)-3-((R)-oxepan-3-yl)propan-2-ylcarbamoyl)piperidin-3-yl)methoxy)ethylcarbamate]
< 10 | CNC[C@H](CC1CCCCC1)NC(=O)N1CCC[C@@H]([C@@H](OCCNC(=O)OC)c2cc(F)cc(F)c2O)C1 [I*-114a, methyl 2-((R)—((R)-1-((S)-1-cyclohexyl-3-(methylamino)propan-2-ylcarbamoyl)piperidin-3-yl)(3,5-difluoro-2-hydroxyphenyl)methoxy)ethylcarbamate]
< 1 | CNC[C@@H](NC(=O)N1CCC[C@@H]([C@@H](OCCNC(=O)OC)c2cc(F)cc(F)c2)C1)[C@@H](O)C1CCCCC1 [I*-112a, methyl 2-((R)-((R)-1-((1S,2R)-1-cyclohexyl-1-hydroxy-3-(methylamino)propan-2-ylcarbamoyl)piperidin-3-yl)(3,5-difluorophenyl)methoxy)ethylcarbamate]
< 10 | CNC[C@@H](NC(=O)N1CCC[C@@H]([C@@H](OCCNC(=O)OC)c2ccccc2)C1)[C@@H](O)C1CCCCC1 [I*-19a, methyl 2-((R)—((R)-1-((1S,2R)-1-cyclohexyl-1-hydroxy-3-(methylamino)propan-2-ylcarbamoyl)piperidin-3-yl)(phenyl)methoxy)ethylcarbamate]
< 50 | CNC[C@H](CC1CCOCC1)NC(=O)N1CCC[C@@H]([C@@H](OCCNC(=O)OC)c2cccc(F)c2)C1 [I*-26a, methyl 2-((R)-(3-fluorophenyl)((R)-1-((S)-1-(methylamino)-3-(tetrahydro-2H-pyran-4-yl)propan-2-ylcarbamoyl)piperidin-3-yl)methoxy)ethylcarbamate]
